From ChEMBL document CHEMBL5108010, “Structure-activity relationship studies on divalent naphthalene diimide G quadruplex ligands with anticancer and antiparasitic activity” (Bioorg Med Chem, 2022)

Experiments:
[1] = Cytotoxicity against human MRC5 cells assessed as inhibition of cell proliferation incubated for 72 hrs by alamar blue assay; type: toxicity, cell-based; conditions: human, MRC5 cells
HeLa = assay: Cytotoxicity against human HeLa cells assessed as inhibition of cell proliferation incubated for 72 hrs by alamar blue assay; type: functional, cell-based; conditions: Homo sapiens, HeLa, 72 h
Trypanosoma brucei = assay: Antitrypanosomal activity against Trypanosoma brucei bloodstream form assessed as inhibition of parasite growth incubated for 72 hrs by alamar blue assay; type: functional, organism-based; conditions: Trypanosoma brucei, 72 h
Leishmania major = assay: Antileishmanial activity against Leishmania major (MHOM/IL/80/Friedlin) promastigotes assessed as inhibition of parasite growth incubated for 72 hrs by MTT assay; type: functional, organism-based; conditions: Leishmania major, MHOM/IL/80/Friedlin, 72 h
[2] = Selectivity index, ratio of IC50 for cytotoxicity against human MRC5 cells to IC50 for cytotoxicity against human HeLa cells; type: toxicity, cell-based; conditions: MRC5 cells versus HeLa cells, read-out: Ratio IC50
[3] = Selectivity index, ratio of IC50 for cytotoxicity against human MRC5 cells to IC50 for antitrypanosomal activity against Trypanosoma brucei bloodstream form; type: toxicity, cell-based; conditions: MRC5 cells versus Trypanosoma brucei bloodstream form, read-out: Ratio IC50
[4] = Selectivity index, ratio of IC50 for cytotoxicity against human MRC5 cells to IC50 for antileishmanial activity against Leishmania major (MHOM/IL/80/Friedlin) promastigotes; type: toxicity, cell-based; conditions: read-out: Ratio IC50
Quadruplex DNA [5] = assay: Binding affinity to G-quadruplex telomeric DNA F21T (5'-duplex GGG TTAGGG TTAGGG TTAGGG-3') (unknown origin) assessed as stabilization by measuring change in melting temperature at 10 uM in potassium buffer by FRET melting assay; type: nucleic-acid assay
Quadruplex DNA [6] = assay: Binding affinity to G-quadruplex telomeric DNA F21T (5'-duplex GGG TTAGGG TTAGGG TTAGGG-3') (unknown origin) assessed as stabilization by measuring change in melting temperature at 10 uM in sodium buffer by FRET melting assay; type: nucleic-acid assay
Quadruplex DNA [7] = assay: Binding affinity to G-quadruplex telomeric DNA FMycT (5'-duplex GGG TTAGGG TTAGGG TTAGGG-3') (unknown origin) assessed as stabilization by measuring change in melting temperature at 10 uM in potassium buffer by FRET melting assay; type: nucleic-acid assay
Quadruplex DNA [8] = assay: Binding affinity to Trypanosoma brucei G-quadruplex telomeric DNA FEBR1T (5'-duplex GGG TTAGGG TTAGGG TTAGGG-3') assessed as stabilization by measuring change in melting temperature at 10 uM in potassium buffer by FRET melting assay; type: nucleic-acid assay
[9] = Binding affinity to hairpin duplex DNA F10T (unknown origin) assessed as stabilization by measuring change in melting temperature at 10 uM in potassium buffer by FRET melting assay
[10] = Drug uptake in human MRC5 cells incubated at 4 degreeC for 30 mins by flow cytometry analysis; type: ADME, cell-based; conditions: mrc5, 0.5 h
[11] = Drug uptake in human MRC5 cells incubated at 4 degreeC for 2 hrs by flow cytometry analysis; type: ADME, cell-based; conditions: mrc5, 2 h
[12] = Drug uptake in human MRC5 cells incubated at 37 degreeC for 30 mins by flow cytometry analysis; type: ADME, cell-based; conditions: mrc5, 0.5 h
[13] = Drug uptake in human MRC5 cells incubated at 37 degreeC for 2 hrs by flow cytometry analysis; type: ADME, cell-based; conditions: mrc5, 2 h
[14] = Drug uptake in Trypanosoma brucei incubated at 4 degreeC for 2 hrs by flow cytometry analysis; type: ADME
[15] = Drug uptake in Trypanosoma brucei incubated at 4 degreeC for 16 hrs by flow cytometry analysis; type: ADME
[16] = Drug uptake in Trypanosoma brucei incubated at 37 degreeC for 2 hrs by flow cytometry analysis; type: ADME
[17] = Drug uptake in Trypanosoma brucei incubated at 37 degreeC for 16 hrs by flow cytometry analysis; type: ADME
[18] = Drug uptake in human MRC5 cells assessed as drug internalization at 5 uM incubated for 30 mins by DAPI staining based confocal fluorescence microscopic analysis; type: ADME, cell-based; conditions: mrc5, 0.5 h
[19] = Drug uptake in human MRC5 cells assessed as drug internalization at 5 uM incubated for 120 mins by DAPI staining based confocal fluorescence microscopic analysis; type: ADME, cell-based; conditions: mrc5, 2 h
[20] = Drug uptake in Trypanosoma brucei assessed as drug internalization at 5 uM incubated for 2 hrs by DAPI staining based confocal fluorescence microscopic analysis; type: ADME
[21] = Drug uptake in Trypanosoma brucei assessed as drug internalization at 5 uM incubated for 6 hrs by DAPI staining based confocal fluorescence microscopic analysis; type: ADME
[22] = Drug internalization in nuclei of human MRC5 cells at 5 uM incubated for 2 hrs by DAPI staining based confocal fluorescence microscopic analysis; type: ADME, cell-based; conditions: mrc5, 2 h
[23] = Drug internalization in nuclei of Trypanosoma brucei at 5 uM incubated for 6 hrs by DAPI staining based confocal fluorescence microscopic analysis; type: ADME

## CN1CCN(c2ccc(N3C(=O)c4ccc5c6c(ccc(c46)C3=O)C(=O)N(c3ccc(N4CCN(C)CC4)cc3)C5=O)cc2)CC1
[1]
  IC50 at 72 h: 22.3 µM
HeLa
  IC50: 2.29 µM
Trypanosoma brucei
  IC50: 0.75 µM
Leishmania major
  IC50: 0.93 µM
[2]
  selectivity ratio: 9.72
[3]
  selectivity ratio: 29.5
[4]
  selectivity ratio: 23.8
Quadruplex DNA [5]
  ΔTm: 1.4 °C
Quadruplex DNA [6]
  ΔTm: 1.3 °C
Quadruplex DNA [7]
  ΔTm: 1.8 °C
Quadruplex DNA [8]
  ΔTm: 0.9 °C
[9]
  ΔTm: -0.1 °C
[10]
  Drug uptake: Active
[11]
  Drug uptake: Active
[12]
  Drug uptake: Active
[13]
  Drug uptake: Active
[14]
  Drug uptake: Active
[15]
  Drug uptake: Active
[16]
  Drug uptake: Active
[17]
  Drug uptake: Active
[18]
  Drug uptake: Active
[19]
  Drug uptake: Active
[20]
  Drug uptake: Active
[21]
  Drug uptake: Active
[22]
  Drug uptake: Active
[23]
  Drug uptake: Active
